Literature values as cited in paper PMC11728000, “Antitumor Activity and Multi-Target Mechanism of Phenolic Schiff Bases Bearing Methanesulfonamide Fragments: Cell Cycle Analysis and a Molecular Modeling Study” (International Journal of Molecular Sciences, 2024).

Assays:
CCRF-CEM = test system: CCRF-CEM; design: method as in https://dtp.cancer.gov/dtpstandard/dwindex/index.jsp; details: ref https://dtp.cancer.gov/dtpstandard/dwindex/index.jsp; cited from earlier work
K-562 = test system: K-562; design: method as in https://dtp.cancer.gov/dtpstandard/dwindex/index.jsp; details: ref https://dtp.cancer.gov/dtpstandard/dwindex/index.jsp; cited from earlier work
MOLT-4 = test system: MOLT-4; design: method as in https://dtp.cancer.gov/dtpstandard/dwindex/index.jsp; details: ref https://dtp.cancer.gov/dtpstandard/dwindex/index.jsp; cited from earlier work
A549/ATCC = test system: A549/ATCC; design: method as in https://dtp.cancer.gov/dtpstandard/dwindex/index.jsp; details: ref https://dtp.cancer.gov/dtpstandard/dwindex/index.jsp; cited from earlier work
EKVX = test system: EKVX; design: method as in https://dtp.cancer.gov/dtpstandard/dwindex/index.jsp; details: ref https://dtp.cancer.gov/dtpstandard/dwindex/index.jsp; cited from earlier work
HOP-62 = test system: HOP-62; design: method as in https://dtp.cancer.gov/dtpstandard/dwindex/index.jsp; details: ref https://dtp.cancer.gov/dtpstandard/dwindex/index.jsp; cited from earlier work
NCI-H23 = test system: NCI-H23; design: method as in https://dtp.cancer.gov/dtpstandard/dwindex/index.jsp; details: ref https://dtp.cancer.gov/dtpstandard/dwindex/index.jsp; cited from earlier work
NCI-H322M = test system: NCI-H322M; design: method as in https://dtp.cancer.gov/dtpstandard/dwindex/index.jsp; details: ref https://dtp.cancer.gov/dtpstandard/dwindex/index.jsp; cited from earlier work
NCI-H522 = test system: NCI-H522; design: method as in https://dtp.cancer.gov/dtpstandard/dwindex/index.jsp; details: ref https://dtp.cancer.gov/dtpstandard/dwindex/index.jsp; cited from earlier work
KM12 = test system: KM12; design: method as in https://dtp.cancer.gov/dtpstandard/dwindex/index.jsp; details: ref https://dtp.cancer.gov/dtpstandard/dwindex/index.jsp; cited from earlier work
SW-620 = test system: SW-620; design: method as in https://dtp.cancer.gov/dtpstandard/dwindex/index.jsp; details: ref https://dtp.cancer.gov/dtpstandard/dwindex/index.jsp; cited from earlier work
SF-268 = test system: SF-268; design: method as in https://dtp.cancer.gov/dtpstandard/dwindex/index.jsp; details: ref https://dtp.cancer.gov/dtpstandard/dwindex/index.jsp; cited from earlier work
SF-539 = test system: SF-539; design: method as in https://dtp.cancer.gov/dtpstandard/dwindex/index.jsp; details: ref https://dtp.cancer.gov/dtpstandard/dwindex/index.jsp; cited from earlier work
SNB-19 = test system: SNB-19; design: method as in https://dtp.cancer.gov/dtpstandard/dwindex/index.jsp; details: ref https://dtp.cancer.gov/dtpstandard/dwindex/index.jsp; cited from earlier work
MALME-3M = test system: MALME-3M; design: method as in https://dtp.cancer.gov/dtpstandard/dwindex/index.jsp; details: ref https://dtp.cancer.gov/dtpstandard/dwindex/index.jsp; cited from earlier work
MDA-MB-435 = test system: MDA-MB-435; design: method as in https://dtp.cancer.gov/dtpstandard/dwindex/index.jsp; details: ref https://dtp.cancer.gov/dtpstandard/dwindex/index.jsp; cited from earlier work
UACC-257 = test system: UACC-257; design: method as in https://dtp.cancer.gov/dtpstandard/dwindex/index.jsp; details: ref https://dtp.cancer.gov/dtpstandard/dwindex/index.jsp; cited from earlier work
UACC-62 = test system: UACC-62; design: method as in https://dtp.cancer.gov/dtpstandard/dwindex/index.jsp; details: ref https://dtp.cancer.gov/dtpstandard/dwindex/index.jsp; cited from earlier work
IGROV1 = test system: IGROV1; design: method as in https://dtp.cancer.gov/dtpstandard/dwindex/index.jsp; details: ref https://dtp.cancer.gov/dtpstandard/dwindex/index.jsp; cited from earlier work
OVCAR-4 = test system: OVCAR-4; design: method as in https://dtp.cancer.gov/dtpstandard/dwindex/index.jsp; details: ref https://dtp.cancer.gov/dtpstandard/dwindex/index.jsp; cited from earlier work
SK-OV-3 = test system: SK-OV-3; design: method as in https://dtp.cancer.gov/dtpstandard/dwindex/index.jsp; details: ref https://dtp.cancer.gov/dtpstandard/dwindex/index.jsp; cited from earlier work
786-0 = test system: 786-0; design: method as in https://dtp.cancer.gov/dtpstandard/dwindex/index.jsp; details: ref https://dtp.cancer.gov/dtpstandard/dwindex/index.jsp; cited from earlier work
A498 = test system: A498; design: method as in https://dtp.cancer.gov/dtpstandard/dwindex/index.jsp; details: ref https://dtp.cancer.gov/dtpstandard/dwindex/index.jsp; cited from earlier work
CAKI-1 = test system: CAKI-1; design: method as in https://dtp.cancer.gov/dtpstandard/dwindex/index.jsp; details: ref https://dtp.cancer.gov/dtpstandard/dwindex/index.jsp; cited from earlier work
SN12C = test system: SN12C; design: method as in https://dtp.cancer.gov/dtpstandard/dwindex/index.jsp; details: ref https://dtp.cancer.gov/dtpstandard/dwindex/index.jsp; cited from earlier work
TK-10 = test system: TK-10; design: method as in https://dtp.cancer.gov/dtpstandard/dwindex/index.jsp; details: ref https://dtp.cancer.gov/dtpstandard/dwindex/index.jsp; cited from earlier work
UO-31 = test system: UO-31; design: method as in https://dtp.cancer.gov/dtpstandard/dwindex/index.jsp; details: ref https://dtp.cancer.gov/dtpstandard/dwindex/index.jsp; cited from earlier work
DU-145 = test system: DU-145; design: method as in https://dtp.cancer.gov/dtpstandard/dwindex/index.jsp; details: ref https://dtp.cancer.gov/dtpstandard/dwindex/index.jsp; cited from earlier work
MDA-MB-231/ATCC = test system: MDA-MB-231/ATCC; design: method as in https://dtp.cancer.gov/dtpstandard/dwindex/index.jsp; details: ref https://dtp.cancer.gov/dtpstandard/dwindex/index.jsp; cited from earlier work
T-47D = test system: T-47D; design: method as in https://dtp.cancer.gov/dtpstandard/dwindex/index.jsp; details: ref https://dtp.cancer.gov/dtpstandard/dwindex/index.jsp; cited from earlier work
MDA-MB-468 = test system: MDA-MB-468; design: method as in https://dtp.cancer.gov/dtpstandard/dwindex/index.jsp; details: ref https://dtp.cancer.gov/dtpstandard/dwindex/index.jsp; cited from earlier work
[1] = test system: NSC Lung Cancer subpanel tumor cell lines; details: cited from earlier work
[2] = test system: Colon Cancer subpanel tumor cell lines; details: cited from earlier work
[3] = test system: CNS Cancer subpanel tumor cell lines; details: cited from earlier work
[4] = test system: Melanoma subpanel tumor cell lines; details: cited from earlier work
[5] = test system: Prostate Cancer subpanel tumor cell lines; details: cited from earlier work
[6] = test system: Breast Cancer subpanel tumor cell lines; details: cited from earlier work
[7] = test system: 59 human cancer cell lines; details: full panel mean-graph midpoint, ref https://dtp.cancer.gov/dtpstandard/dwindex/index.jsp, cited from earlier work
[8] = read-out: GI50, subpanel average, ref https://dtp.cancer.gov/dtpstandard/dwindex/index.jsp
[9] = read-out: LC50, subpanel average, ref https://dtp.cancer.gov/dtpstandard/dwindex/index.jsp
[10] = ref https://dtp.cancer.gov/dtpstandard/dwindex/index.jsp

Compound: C#Cc1cccc(Nc2ncnc3cc(OCCOC)c(OCCOC)cc23)c1 [Erlotinib, erlotinib]
- GI50 (CCRF-CEM): 50.1 µM
- GI50 (K-562): 31.6 µM
- GI50 (MOLT-4): 25.1 µM
- GI50 (A549/ATCC): 10 µM
- GI50 (EKVX): 0.199 µM
- GI50 (HOP-62): 15.8 µM
- GI50 (NCI-H23): 31.6 µM
- GI50 (NCI-H322M): 0.1 µM
- GI50 (NCI-H522): 1 µM
- GI50 (KM12): 79.4 µM
- GI50 (SW-620): 79.4 µM
- GI50 (SF-268): 15.8 µM
- GI50 (SF-539): 19.9 µM
- GI50 (SNB-19): 12.6 µM
- GI50 (MALME-3M): 1.58 µM
- GI50 (MDA-MB-435): 19.9 µM
- GI50 (UACC-257): 100 µM
- GI50 (UACC-62): 3.16 µM
- GI50 (IGROV1): 0.316 µM
- GI50 (OVCAR-4): 10 µM
- GI50 (SK-OV-3): 0.5 µM
- GI50 (786-0): 10 µM
- GI50 (A498): 2.51 µM
- GI50 (CAKI-1): 0.199 µM
- GI50 (SN12C): 1.58 µM
- GI50 (TK-10): 0.251 µM
- GI50 (UO-31): 1 µM
- GI50 (DU-145): 1.99 µM
- GI50 (MDA-MB-231/ATCC): 6.31 µM
- GI50 (T-47D): 3.98 µM
- GI50 (MDA-MB-468): 0.126 µM
- GI50 [1, 8]: 13.1 µM
- CC50 [1, 9]: 97.7 µM
- TGI, subpanel average [1, 10]: 73.76 µM
- GI50 [2, 8]: 51.7 µM
- CC50 [2, 9]: > 100 µM
- TGI, subpanel average [2, 10]: c (compounds showed values ≥ 100 μM)
- GI50 [3, 8]: 17 µM
- CC50 [3, 9]: > 100 µM
- TGI, subpanel average [3, 10]: 82.11 µM
- GI50 [4, 8]: 23.7 µM
- CC50 [4, 9]: 93.3 µM
- TGI, subpanel average [4, 10]: 77.89 µM
- GI50 [5, 8]: 20.9 µM
- CC50 [5, 9]: > 100 µM
- TGI, subpanel average [5, 10]: c (compounds showed values ≥ 100 μM)
- GI50 [6, 8]: 24.7 µM
- CC50 [6, 9]: 96.4 µM
- TGI, subpanel average [6, 10]: 70.53 µM
- TGI MG-MID [7]: 66.3 µM
- GI50 ([7]; read-out: GI50 MG-MID): 7.68 µM
- CC50 ([7]; read-out: LC50 MG-MID): 95.6 µM
